Results from patent US10954232B2, “Pyrazole derivative as ALK5 inhibitor and uses thereof” (HANMI PHARMACEUTICAL CO., LTD., priority 2016, dated 2021).

Each molecule was assayed against T1, ALK5 kinase (Homo sapiens, UniProt P36897) (assay: Activity inhibition test on ALK5 enzyme (LanthaScreen Eu binding kinase assay)). Conditions: kinase tracer 178, 60 minutes at room temperature.
T1 construct: GST; purchased Thermo Fisher Scientific Solutions
T1 sequence (P36897 34-503): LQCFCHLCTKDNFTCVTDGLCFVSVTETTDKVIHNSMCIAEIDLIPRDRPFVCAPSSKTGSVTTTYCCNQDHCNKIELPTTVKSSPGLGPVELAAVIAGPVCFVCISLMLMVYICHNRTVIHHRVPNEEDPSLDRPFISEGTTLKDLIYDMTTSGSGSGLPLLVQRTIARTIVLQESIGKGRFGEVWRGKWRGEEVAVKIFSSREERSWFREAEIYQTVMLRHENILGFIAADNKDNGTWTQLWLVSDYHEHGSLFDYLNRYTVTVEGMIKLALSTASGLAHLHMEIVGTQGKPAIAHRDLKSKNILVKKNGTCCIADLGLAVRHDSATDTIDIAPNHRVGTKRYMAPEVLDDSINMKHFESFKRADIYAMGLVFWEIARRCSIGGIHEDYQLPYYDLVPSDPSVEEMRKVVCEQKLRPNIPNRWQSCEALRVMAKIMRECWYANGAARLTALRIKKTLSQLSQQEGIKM
Summary of the method: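 TR-FRET tracer-displacement format with final 5 nM ALK5, 2 nM Eu-GST antibody and 10 nM kinase tracer 178. Compound dilution series ran 1 μM–0.0001 μM, incubated 60 min at room temperature with stirring. Fluorescence was read ([…]), and IC50 came from percent inhibition versus control.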
An IC50 of 10 to 100 nM was found for `Cc1cccc(-n2nc(C(=O)Nc3ccc(OC(F)(F)F)cc3)cc2-c2ccc3ncnn3c2)n1` [Example 101, 5-([1,2,4]triazolo[1,5-α]pyridin-6-yl)-1-(6-methylpyridin-2-yl)-N-(4-(trifluoromethoxy)phenyl)-1H-pyrazole-3-carboxyamide] in this work.
An IC50 of 10 to 100 nM was found for `Cc1cccc(-n2nc(C(=O)Nc3cccc(N(C)C)c3)cc2-c2ccc3ncnn3c2)n1` [Example 102, 5-([1,2,4]triazolo[1,5-α]pyridin-6-yl)-N-(3-(dimethylamino)phenyl)-1-(6-methylpyridin-2-yl)-1H-pyrazole-3-carboxyamide] in this work.
An IC50 of 9.1 nM was found for `Cc1cccc(-n2nc(C(=O)Nc3ccc(N)cc3)cc2-c2ccc3ncnn3c2)n1` [Example 103, 5-([1,2,4]triazolo[1,5-α]pyridin-6-yl)-N-(4-aminophenyl)-1-(6-methylpyridin-2-yl)-1H-pyrazole-3-carboxyamide] in this work.
An IC50 of 7 nM was found for `Cc1cccc(-n2nc(C(=O)Nc3ccc(N(C)C)cc3)cc2-c2ccc3ncnn3c2)n1` [Example 104, 5-([1,2,4]triazolo[1,5-α]pyridin-6-yl)-N-(4-(dimethylamino)phenyl)-1-(6-methylpyridin-2-yl)-1-H-pyrazole-3-carboxyamide] in this work.
An IC50 of 7 nM was found for `Cc1cccc(-n2nc(C(=O)Nc3ccc(N4CCCC4)cc3)cc2-c2ccc3ncnn3c2)n1` [Example 105, 5-([1,2,4]triazolo[1,5-α]pyridin-6-yl)-N-(4-(pyrrolidin-1-yl)phenyl)-1-(6-methylpyridin-2-yl)-1H-pyrazole-3-carboxyamide] in this work.
An IC50 of 14 nM was found for `Cc1cccc(-n2nc(C(=O)Nc3ccc(N(C)CCN(C)C)cc3)cc2-c2ccc3ncnn3c2)n1` [Example 106, 5-([1,2,4]triazolo[1,5-α]pyridin-6-yl)-N-(4-((2-(dimethylamino)ethyl)(methyl)amino)phenyl)-1-(6-methylpyridin-2-yl)-1H-pyrazole-3-carboxyamide] in this work.
An IC50 of 10 to 100 nM was found for `Cc1cccc(-n2nc(C(=O)Nc3ccc(N4CCN(C)CC4)cc3)cc2-c2ccc3ncnn3c2)n1` [Example 107, 5-([1,2,4]triazolo[1,5-α]pyridin-6-yl)-N-(4-(4-methylpiperazin-1-yl)phenyl)-1-(6-methylpyridin-2-yl)-1H-pyrazole-3-carboxyamide] in this work.
An IC50 of ~10 nM was found for `CC(=O)N1CCN(c2ccc(NC(=O)c3cc(-c4ccc5ncnn5c4)n(-c4cccc(C)n4)n3)cc2)CC1` [Example 108, 5-([1,2,4]triazolo[1,5-α]pyridin-6-yl)-N-(4-(4-acetylpiperazin-1-yl)phenyl)-1-(6-methylpyridin-2-yl)-1H-pyrazole-3-carboxyamide] in this work.
An IC50 of 10 to 100 nM was found for `CC(=O)Nc1ccc(NC(=O)c2cc(-c3ccc4ncnn4c3)n(-c3cccc(C)n3)n2)cc1` [Example 110, 5-([1,2,4]triazolo[1,5-α]pyridin-6-yl)-N-(4-acetamidophenyl)-1-(6-methylpyridin-2-yl)-1H-pyrazole-3-carboxyamide] in this work.
`Cc1cccc(-n2nc(C(=O)Nc3ccc(CN(C)C)cc3)cc2-c2ccc3ncnn3c2)n1` [Example 111, 5-([1,2,4]triazolo[1,5-α]pyridin-6-yl)-N-(4-((dimethylamino)methyl)phenyl)-1-(6-methylpyridin-2-yl)-1H-pyrazole-3-carboxyamide] was tested, and the IC50 was > 100 nM.
An IC50 of 10 to 100 nM was found for `CNC(=O)c1ccccc1NC(=O)c1cc(-c2ccc3ncnn3c2)n(-c2cccc(C)n2)n1` [Example 112, 5-([1,2,4]triazolo[1,5-α]pyridin-6-yl)-N-(2-(methylcarbamoyl)phenyl)-1-(6-methylpyridin-2-yl)-1H-pyrazole-3-carboxyamide] in this work.
An IC50 of 10 to 100 nM was found for `CNC(=O)c1ccc(NC(=O)c2cc(-c3ccc4ncnn4c3)n(-c3cccc(C)n3)n2)cc1` [Example 113, 5-([1,2,4]triazolo[1,5-α]pyridin-6-yl)-N-(4-(methylcarbamoyl)phenyl)-1-(6-methylpyridin-2-yl)-1H-pyrazole-3-carboxyamide] in this work.
An IC50 of 9.5 nM was found for `Cc1cccc(-n2nc(C(=O)Nc3ccccc3)cc2-c2ccc3ncnn3c2)n1` [Example 114, 5-([1,2,4]triazolo[1,5-α]pyridin-6-yl)-1-(6-methylpyridin-2-yl)-N-phenyl-1H-pyrazole-3-carboxyamide] in this work.
An IC50 of 10 to 100 nM was found for `Cc1cccc(-n2nc(C(=O)Nc3ccccc3C)cc2-c2ccc3ncnn3c2)n1` [Example 115, 5-([1,2,4]triazolo[1,5-α]pyridin-6-yl)-1-(6-methylpyridin-2-yl)-N-(o-tolyl)-1H-pyrazole-3-carboxyamide] in this work.
An IC50 of ~10 nM was found for `Cc1cccc(NC(=O)c2cc(-c3ccc4ncnn4c3)n(-c3cccc(C)n3)n2)c1` [Example 116, 5-([1,2,4]triazolo[1,5-α]pyridin-6-yl)-1-(6-methylpyridin-2-yl)-N-(m-tolyl)-1H-pyrazole-3-carboxyamide] in this work.
An IC50 of 10 to 100 nM was found for `Cc1ccc(NC(=O)c2cc(-c3ccc4ncnn4c3)n(-c3cccc(C)n3)n2)cc1` [Example 117, 5-([1,2,4]triazolo[1,5-α]pyridin-6-yl)-1-(6-methylpyridin-2-yl)-N-(p-tolyl)-1H-pyrazole-3-carboxyamide] in this work.
An IC50 of 10 to 100 nM was found for `Cc1cccc(-n2nc(C(=O)Nc3cccc(C(F)(F)F)c3)cc2-c2ccc3ncnn3c2)n1` [Example 118, 5-([1,2,4]triazolo[1,5-α]pyridin-6-yl)-1-(6-methylpyridin-2-yl)-N-(3-(trifluoromethyl)phenyl)-1H-pyrazole-3-carboxyamide] in this work.
With `C=Cc1ccc(NC(=O)c2cc(-c3ccc4ncnn4c3)n(-c3cccc(C)n3)n2)cc1` [Example 119, 5-([1,2,4]triazolo[1,5-α]pyridin-6-yl)-1-(6-methylpyridin-2-yl)-N-(4-vinylphenyl)-1H-pyrazole-3-carboxyamide] the IC50 was < 10 nM.
An IC50 of 10 to 100 nM was found for `Cc1cccc(-n2nc(C(=O)Nc3cccc(C#N)c3)cc2-c2ccc3ncnn3c2)n1` [Example 120, 5-([1,2,4]triazolo[1,5-α]pyridin-6-yl)-N-(3-cyanophenyl)-1-(6-methylpyridin-2-yl)-1H-pyrazole-3-carboxyamide] in this work.
An IC50 of 10 to 100 nM was found for `Cc1cccc(-n2nc(C(=O)Nc3ccc(C#N)cc3)cc2-c2ccc3ncnn3c2)n1` [Example 121, 5-([1,2,4]triazolo[1,5-α]pyridin-6-yl)-N-(4-cyanophenyl)-1-(6-methylpyridin-2-yl)-1-H-pyrazole-3-carboxyamide] in this work.
An IC50 of 10 to 100 nM was found for `CC(=O)c1cccc(NC(=O)c2cc(-c3ccc4ncnn4c3)n(-c3cccc(C)n3)n2)c1` [Example 122, 5-([1,2,4]triazolo[1,5-α]pyridin-6-yl)-N-(3-acetylphenyl)-1-(6-methylpyridin-2-yl)-1H-pyrazole-3-carboxyamide] in this work.
An IC50 of 10 to 100 nM was found for `CC(=O)c1ccc(NC(=O)c2cc(-c3ccc4ncnn4c3)n(-c3cccc(C)n3)n2)cc1` [Example 123, 5-([1,2,4]triazolo[1,5-α]pyridin-6-yl)-N-(4-acetylphenyl)-1-(6-methylpyridin-2-yl)-1H-pyrazole-3-carboxyamide] in this work.
An IC50 of 31 nM was found for `Cc1cccc(-n2nc(C(=O)Nc3ccccc3F)cc2-c2ccc3ncnn3c2)n1` [Example 124, 5-([1,2,4]triazolo[1,5-α]pyridin-6-yl)-N-(2-fluorophenyl)-1-(6-methylpyridin-2-yl)-1H-pyrazole-3-carboxyamide] in this work.
An IC50 of 10 to 100 nM was found for `Cc1cccc(-n2nc(C(=O)Nc3cccc(F)c3)cc2-c2ccc3ncnn3c2)n1` [Example 125, 5-([1,2,4]triazolo[1,5-α]pyridin-6-yl)-N-(3-fluorophenyl)-1-(6-methylpyridin-2-yl)-1H-pyrazole-3-carboxyamide] in this work.
An IC50 of ~10 nM was found for `Cc1cccc(-n2nc(C(=O)Nc3ccc(F)cc3)cc2-c2ccc3ncnn3c2)n1` [Example 126, 5-([1,2,4]triazolo[1,5-α]pyridin-6-yl)-N-(4-fluorophenyl)-1-(6-methylpyridin-2-yl)-1H-pyrazole-3-carboxyamide] in this work.
An IC50 of ~100 nM was found for `Cc1cccc(-n2nc(C(=O)Nc3ccccc3Cl)cc2-c2ccc3ncnn3c2)n1` [Example 127, 5-([1,2,4]triazolo[1,5-α]pyridin-6-yl)-N-(2-chlorophenyl)-1-(6-methylpyridin-2-yl)-1H-pyrazole-3-carboxyamide] in this work.
An IC50 of 10 to 100 nM was found for `Cc1cccc(-n2nc(C(=O)Nc3cccc(Cl)c3)cc2-c2ccc3ncnn3c2)n1` [Example 128, 5-([1,2,4]triazolo[1,5-α]pyridin-6-yl)-N-(3-chlorophenyl)-1-(6-methylpyridin-2-yl)-1H-pyrazole-3-carboxyamide] in this work.
An IC50 of 10 to 100 nM was found for `Cc1cccc(-n2nc(C(=O)Nc3ccc(Cl)cc3)cc2-c2ccc3ncnn3c2)n1` [Example 129, 5-([1,2,4]triazolo[1,5-α]pyridin-6-yl)-N-(4-chlorophenyl)-1-(6-methylpyridin-2-yl)-1H-pyrazole-3-carboxyamide] in this work.
An IC50 of 10 to 100 nM was found for `Cc1cccc(-n2nc(C(=O)Nc3ccccc3Br)cc2-c2ccc3ncnn3c2)n1` [Example 130, 5-([1,2,4]triazolo[1,5-α]pyridin-6-yl)-N-(2-bromophenyl)-1-(6-methylpyridin-2-yl)-1H-pyrazole-3-carboxyamide] in this work.
An IC50 of 10 to 100 nM was found for `Cc1cccc(-n2nc(C(=O)Nc3cccc(Br)c3)cc2-c2ccc3ncnn3c2)n1` [Example 131, 5-([1,2,4]triazolo[1,5-α]pyridin-6-yl)-N-(3-bromophenyl)-1-(6-methylpyridin-2-yl)-1H-pyrazole-3-carboxyamide] in this work.
